Measurements from paper PMC7312353, “Lipid Raft Destabilization Impairs Mouse TRPA1 Responses to Cold and Bacterial Lipopolysaccharides” (International Journal of Molecular Sciences, 2020).

Target: mouse TRPA1 (mTRPA1), Transient receptor potential ankyrin 1 cation channel (Mus musculus, UniProt Q8BLA8)
Experiment: Fura-2 ratiometric Ca2+ imaging, concentration-response in CHO-K1 cells stably transfected with mTRPA1
Assay type: cell-based

mouse TRPA1 (mTRPA1), Transient receptor potential ankyrin 1 cation channel, sequence (Q8BLA8 whole entry): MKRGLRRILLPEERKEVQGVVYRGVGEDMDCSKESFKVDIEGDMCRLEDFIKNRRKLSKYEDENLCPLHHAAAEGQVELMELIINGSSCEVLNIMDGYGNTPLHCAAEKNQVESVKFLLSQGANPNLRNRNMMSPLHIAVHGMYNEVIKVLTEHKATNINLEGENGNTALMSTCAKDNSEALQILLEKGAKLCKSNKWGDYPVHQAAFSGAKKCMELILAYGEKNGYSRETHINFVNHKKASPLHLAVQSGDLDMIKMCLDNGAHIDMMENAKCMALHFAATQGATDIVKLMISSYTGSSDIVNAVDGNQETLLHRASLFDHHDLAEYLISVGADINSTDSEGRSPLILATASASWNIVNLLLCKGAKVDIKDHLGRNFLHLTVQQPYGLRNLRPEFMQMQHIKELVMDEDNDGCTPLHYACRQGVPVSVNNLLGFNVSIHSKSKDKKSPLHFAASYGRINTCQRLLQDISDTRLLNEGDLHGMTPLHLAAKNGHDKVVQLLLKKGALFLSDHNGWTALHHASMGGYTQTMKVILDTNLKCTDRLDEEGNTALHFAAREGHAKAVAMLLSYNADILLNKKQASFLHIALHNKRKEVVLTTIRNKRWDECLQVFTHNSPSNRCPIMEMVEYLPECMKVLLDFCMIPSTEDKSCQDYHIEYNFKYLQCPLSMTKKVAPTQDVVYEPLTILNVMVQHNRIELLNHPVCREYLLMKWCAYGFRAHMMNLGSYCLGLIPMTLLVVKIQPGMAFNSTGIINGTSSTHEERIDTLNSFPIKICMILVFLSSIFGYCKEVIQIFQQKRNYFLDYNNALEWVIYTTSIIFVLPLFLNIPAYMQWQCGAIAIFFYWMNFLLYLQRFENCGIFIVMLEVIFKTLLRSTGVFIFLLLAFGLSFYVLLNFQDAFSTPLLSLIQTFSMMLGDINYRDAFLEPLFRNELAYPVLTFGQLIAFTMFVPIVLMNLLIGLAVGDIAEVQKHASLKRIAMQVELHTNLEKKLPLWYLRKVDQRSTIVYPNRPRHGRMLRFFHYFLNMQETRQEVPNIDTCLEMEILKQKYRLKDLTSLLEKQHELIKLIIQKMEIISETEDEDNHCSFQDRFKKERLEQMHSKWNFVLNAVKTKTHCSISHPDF

`C=CCN=C=S` [AITC, allyl isothiocyanate] gave an EC50 of 4.6 ± 1.1 µM.
